Data as given in US10093623B2, “Cyclic amides as MetAP-2 inhibitors” (MERCK PATENT GmbH, priority 2012, dated 2018).
pIC50: −log10 of the molar value.

molecular target: MetAP-2 (Homo sapiens, UniProt P50579); assay: MetAP-2 activity measurement (coupled enzymatic reactions, Met-Arg-Ser substrate, dianisidine detection at 450 nm); assay type: biochemical; settings: Inhibition of MetAP-2; read-out: IC50 enzyme
Method in brief: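 Rate read from the linear part of the 450 nm absorbance trace. Dianisidine oxidation by peroxidase reports H2O2 made when amino acid oxidase acts on methionine cleaved from MAS tripeptide, one mol dye per mol Met; extinction coefficient gives molar activity.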

MetAP-2, sequence (P50579 whole entry, species assumed): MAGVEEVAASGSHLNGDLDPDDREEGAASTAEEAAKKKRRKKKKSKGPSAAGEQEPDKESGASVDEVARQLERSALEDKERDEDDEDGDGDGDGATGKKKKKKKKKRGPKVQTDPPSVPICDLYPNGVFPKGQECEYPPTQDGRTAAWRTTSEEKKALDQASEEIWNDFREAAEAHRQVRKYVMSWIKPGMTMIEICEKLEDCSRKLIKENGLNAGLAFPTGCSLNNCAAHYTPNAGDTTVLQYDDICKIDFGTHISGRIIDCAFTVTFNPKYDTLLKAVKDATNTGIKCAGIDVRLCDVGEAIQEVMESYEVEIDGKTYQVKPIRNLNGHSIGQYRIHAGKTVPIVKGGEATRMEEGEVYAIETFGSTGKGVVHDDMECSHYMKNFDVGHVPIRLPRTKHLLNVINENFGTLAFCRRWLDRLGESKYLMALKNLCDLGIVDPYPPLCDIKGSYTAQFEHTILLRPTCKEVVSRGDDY

| pIC50 | Compound |
| --- | --- |
| < 5.00 | CCOC(=O)c1cc2cc(N3CC[C@@](O)(C(=O)NCc4cc(F)cc(Cl)c4)C3=O)ccc2[nH]1 [B81, Ethyl 5-[(R)-3-(3-chloro-5-fluorobenzylcarbamoyl)-3-hydroxy-2-oxopyrrolidin-1-yl]-1H-indole-2-carboxylate] |
| 6.00 to 8.00 | O=C(NCc1cc(F)cc(Cl)c1)[C@@]1(O)CCN(CCc2c[nH]c3ccccc23)C1=O [B37, N-(3-Chloro-5-fluorobenzyl)-(S)-3-hydroxy-1-[2-(1H-indol-3-yl)-ethyl]-2-oxopyrrolidine-3-carboxamide] |
| 5.00 to 6.00 | O=C(NCc1cc(F)cc(Cl)c1)C1(O)CCN(CC2CCOCC2)C1=O (stereo not drawn) [A220, N-(3-Chloro-5-fluorobenzyl)-3-hydroxy-2-oxo-1-(tetrahydro-pyran-4-ylmethyl)pyrrolidine-3-carboxamide] |
| 6.00 to 8.00 | CCOC(=O)c1cc2cc(N3CC[C@](O)(C(=O)NCc4cc(F)cc(Cl)c4)C3=O)ccc2[nH]1 [B80, Ethyl 5-[(S)-3-(3-chloro-5-fluorobenzylcarbamoyl)-3-hydroxy-2-oxopyrrolidin-1-yl]-1H-indole-2-carboxylate] |
| 6.00 to 8.00 | O=C(NCc1cc(F)cc(Cl)c1)C1(O)CCN(Cc2cc[nH]n2)C1=O (stereo not drawn) [A277, N-(3-Chloro-5-fluorobenzyl)-3-hydroxy-2-oxo-1-(1H-pyrazol-3-ylmethyl)pyrrolidine-3-carboxamide] |
| 6.00 to 8.00 | Cc1cncc(N2CCC(O)(C(=O)NCc3cc(F)cc(Cl)c3)C2=O)c1 (stereo not drawn) [A117, N-(3-Chloro-5-fluorobenzyl)-3-hydroxy-1-(5-methylpyridin-3-yl)-2-oxopyrrolidine-3-carboxamide] |
| 6.00 to 8.00 | COc1ccc(CN2CC[C@](O)(C(=O)NCc3cc(F)cc(Cl)c3)C2=O)cc1 [A181, N-(3-Chloro-5-fluorobenzyl)-(S)-3-hydroxy-1-(4-methoxybenzyl)-2-oxopyrrolidine-3-carboxamide] |
| 6.00 to 8.00 | COCCn1cc(N2CC[C@](O)(C(=O)NCc3cc(F)cc(Cl)c3)C2=O)cn1 [B99, N-(3-Chloro-5-fluorobenzyl)-(S)-3-hydroxy-1-[1-(2-methoxy-ethyl)-1H-pyrazol-4-yl]-2-oxo-pyrrolidine-3-carboxamide] |
| 5.00 to 6.00 | Cn1c(CN2CCC(O)(C(=O)NCc3cc(F)cc(Cl)c3)C2=O)nc2ccccc21 (stereo not drawn) [A232, N-(3-Chloro-5-fluorobenzyl)-3-hydroxy-1-(1-methyl-1H-benzimidazol-2-ylmethyl)-2-oxo-pyrrolidine-3-carboxamide] |

Continued, compound first:

| Compound | pIC50 |
| --- | --- |
| Cc1cc(N2CCC(O)(C(=O)NCc3cc(F)cc(Cl)c3)C2=O)cnc1N1CCOCC1=O (stereo not drawn) [A142, N-(3-Chloro-5-fluorobenzyl)-3-hydroxy-1-[5-methyl-6-(3-oxo-morpholin-4-yl)-pyridin-3-yl]-2-oxopyrrolidine-3-carboxamide] | 6.00 to 8.00 |
| CC(C)OC(=O)C1(O)CCN(C(=O)OCc2ccccc2)C1=O (stereo not drawn) [B53, 1-Benzyl 3-isopropyl 3-hydroxy-2-oxopyrrolidine-1,3-dicarboxylate] | < 5.00 |
| O=C(NCCc1cc(F)cc(Cl)c1)[C@]1(O)CCN(c2ccc3[nH]ncc3c2)C1=O [A192, N-[2-(3-Chloro-5-fluorophenyl)-ethyl]-(R)-3-hydroxy-1-(1H-indazol-5-yl)-2-oxopyrrolidine-3-carboxamide] | 5.00 to 6.00 |
| O=C1CCc2cc(N3CC[C@@](O)(C(=O)NCCc4cc(F)cc(F)c4)C3=O)ccc2N1 [A223, N-[2-(3,5-Difluorophenyl)ethyl]-(R)-3-hydroxy-2-oxo-1-(2-oxo-1,2,3,4-tetrahydroquinolin-6-yl)-pyrrolidine-3-carboxamide] | < 5.00 |
| (S)-3-(1,1-Dioxo-1l6- thiomorpholine-4-carbonyl)-3- hydroxy-1-phenylpyrrolidin-2-one [A56] | < 5.00 |
| CC1(C)O[C@H]2[C@H](CCC[C@@H]2N2CCC(O)(C(=O)NCc3cc(F)cc(Cl)c3)C2=O)O1 (stereo partly drawn) [A129, N-(3-Chloro-5-fluorobenzyl)-1-((3aR,4S,7aS)-2,2-dimethyl-hexahydrobenzo-1,3-dioxol-4-yl)-3-hydroxy-2-oxopyrrolidine-3-carboxamide] | 5.00 to 6.00 |
| O=C(NCc1cc(F)cc(Cl)c1)C1(O)CCN(C[C@H]2CC[C@@H](C(=O)O)CC2)C1=O (stereo partly drawn) [A274, 4-[3-(3-Chloro-5-fluorobenzylcarbamoyl)-3-hydroxy-2-oxopyrrolidin-1-yl-methyl]cyclohexanecarboxylic acid] | 5.00 to 6.00 |
| CC1CC(O)(C(=O)NCc2cc(F)cc(Cl)c2)C(=O)N1c1ccccc1 (stereo not drawn) [A119, N-(3-chloro-5-fluorobenzyl)-3-hydroxy-5-methyl-2-oxo-1-phenylpyrrolidine-3-carboxamide] | 5.00 to 6.00 |
| O=C(NC1CC1)c1cccc(N2CC[C@@](O)(C(=O)NCc3cc(F)cc(Cl)c3)C2=O)c1 [A82, N-(3-Chloro-5-fluorobenzyl)-(R)-1-(3-cyclopropylcarbamoylphenyl)-3-hydroxy-2-oxopyrrolidine-3-carboxamide] | 5.00 to 6.00 |
| O=C1CCc2cc(N3CC[C@](O)(C(=O)NCc4cccc(F)c4Cl)C3=O)ccc2N1 [B15, N-(2-Chloro-3-fluorobenzyl)-(S)-3-hydroxy-2-oxo-1-(2-oxo-1,2,3,4-tetrahydroquinolin-6-yl)-pyrrolidine-3-carboxamide] | 6.00 to 8.00 |
| Nc1ccccc1NC(=O)c1cc2cc(N3CC[C@](O)(C(=O)NCc4cc(F)cc(Cl)c4)C3=O)ccc2[nH]1 [B129, N-(2-Aminophenyl)-5-[(S)-3-(3-chloro-5-fluorobenzyl-carbamoyl)-3-hydroxy-2-oxo-pyrrolidin-1-yl]-1H-indole-2-carboxamide] | 6.00 to 8.00 |
| O=C(NCc1cc(F)cc(Cl)c1)[C@@]1(O)CCN(c2cccc(NS(=O)(=O)C3CC3)c2)C1=O [A80, N-(3-Chloro-5-fluorobenzyl)-(S)-1-(3-cyclopropanesulfonylamino-phenyl)-3-hydroxy-2-oxo-pyrrolidine-3-carboxamide] | 6.00 to 8.00 |
| O=C(NCc1ccc(F)cc1)[C@]1(O)CCCN(Cc2cccc(F)c2F)C1=O [A262, N-(4-Fluorobenzyl)-(R)-1-(2,3-difluorobenzyl)-3-hydroxy-2-oxo-piperidine-3-carboxamide] | < 5.00 |
| O=C(NCc1cccc(F)c1)[C@]1(O)CCCN(Cc2cccc(F)c2F)C1=O [A261, N-(3-Fluorobenzyl)-(R)-1-(2,3-difluorobenzyl)-3-hydroxy-2-oxo-piperidine-3-carboxamide] | < 5.00 |
| O=C(NCc1cc(F)cc(Cl)c1)C1(O)CCN(c2cnc3[nH]c(C(F)(F)F)nc3c2)C1=O (stereo not drawn) [B36, N-(3-Chloro-5-fluorobenzyl)-3-hydroxy-2-oxo-1-(2-trifluoromethyl-3H-imidazo-[4,5-b]pyridin-6-yl)pyrrolidine-3-carboxamide] | 5.00 to 6.00 |
| Cc1ccc(CNCC2(O)CCN(c3ccccc3)C2=O)cc1 (stereo not drawn) [B49, 3-Hydroxy-3-[(4-methyl-benzylamino)methyl]-1-phenyl-pyrrolidin-2-one] | 6.00 to 8.00 |
| O=C1CCc2cc(N3CC[C@](O)(C(=O)NCc4cc(Cl)c(F)cc4F)C3=O)ccc2N1 [A235, N-(5-Chloro-2,4-difluorobenzyl)-(S)-3-hydroxy-2-oxo-1-(2-oxo-1,2,3,4-tetrahydroquinolin-6-yl)-pyrrolidine-3-carboxamide] | 6.00 to 8.00 |
| O=C(c1cc2cc(N3CC[C@](O)(C(=O)NCc4cc(F)cc(Cl)c4)C3=O)ccc2[nH]1)N1CCC1 [B114, N-(3-Chloro-5-fluorobenzyl)-(S)-1-[2-(azetidine-1-carbonyl)-1H-indol-5-yl]-3-hydroxy-2-oxo-pyrrolidine-3-carboxamide] | 6.00 to 8.00 |
